Several values for one entry are separate records, joined by “and”; a condition that tells them apart may be missing. Identical values can stand only once.
Columns and labels:
[1] = test system: blood perfused papillary muscle preparation; assay: Determination of contractile power on blood perfused papillary muscle preparation; parameters: species or system dog; conditions: for ED 30: dose giving 30% increase of developed tension, least-square method
Description: Dogs of either sex weighing 7-12kg were anesthetized with sodium pentobarbital (30mg/kg,i.v.). Heparin of 1000 unit/kg was administered to each animal intravenously. The animals were exsanguinated and heart was removed. The preparation was perfused through the cannulated anterior septal artery(ASA) with arterial blood from a donor dog at constant pressure of about 100 mmHg. Donor dogs were anesthetized with sodium pentobarbital (30mg/kg, i.v.). Heparin of 1000 units/kg was administered intravenously. The papillary muscle was stimulated with rectangular pulses of 5- ms duration and about 1.5 times the threshold voltage at a rate of 120 stimuli/min through bipolar electrodes.Resting tension was made to 2 g.The developed tension of papillary muscle was determined by Isometric tresducer.Detailed method was reported by Matsumoto in Am. J. Physiol. 218, 1459-1463 (1970). Test compound at the doses of 10-30ul was injected in flowing blood in the gum tube connected to catheter. The inotropic effect of the test compounds was shown by change percent of developed tension compared with that prior to the administration of the test compounds.ED₃₀ value was determined by least-square method and the results were shown in the Table 1.

[2] = test system: blood-perfused sino-atrial preparation; assay: Determination of sinus rate on blood-perfused sino-atrial preparation; parameters: species or system dog; conditions: vs sinus rate prior to injection; for activation at 0.0001 mg: dose 0.1 ug; for activation at 0.003 mg: dose 3.0 ug; for activation at 0.01 mg: dose 10.0 ug; for activation at 0.03 mg: dose 30.0 ug; for change of sinus rate(%): listed as 8-methyl-6-(4-met-hylimidazol-1-)-( 4H)-3,1-benzothia-zin-2-one
Description: Mongrel dogs of either sex weighing 7-12kg were anesthetized with sodium pentoba rbital(30mg/kg i.v.). Heparin of 1000 unit/kg was administered to each animal intravenously and the animals were exsanguinated. Heart was removed and put in Krebs-Henselelt solution. Catheter was inserted into blood vessel between right coronary artery and SA nodes. Right artrium and catheter were together removed. Blood supplied from carotid artery of donor dog of either sex weighing 15-25kg, was supplied to blood vessel cather from right coronary artery and SA node under constant blood pressure of 100mmHg by use of Peristaltic pump. The resting tension of right atrial muscle was made to 2g. The sinus rate triggered by spontaneous contraction of atrial muscle was determined on Narco physiograph(Narcotrace 4). Detailed method was reported by S. Chiba, et al. in Japanese Pharmacology 25, 433-439(1975). Doses of test compounds were injected into flowing blood in gum tube connected to the near part of the catheter inserted into right coronary artery. The effects on sinus rate were shown as percent compared with the sinus rate prior to the injection of the test compounds.

[3] = Acute toxicity test in mice, oral; conditions: mouse, in vivo
Description: Acute toxicity test of 6-(4-methylimidazol-1-yl)-(4H)-3,1-benzothiazine-2-thione was conducted in BALB/C mice. The test compound was suspended in 5% arabic gum solution and administered orally to five mice at a dose of 200 mg/kg body weight by gastric tubing. […] Accordingly, LD₅₀ of the compound is 200mg/kg or more.

[4] = test system: cyclic AMP phosphodiesterase; assay: Effect on cyclic AMP phosphodiesterase isolated from dog's heart; type: biochemical; conditions: substrate 1.0 uM; for Inhibitory effect on PDE activity: values fall with concentration
Description: Dogs weighing 10 kg were anesthetized with sodium pentobarbital and heparin was administered intravenously. Heart was removed. Two to four grams of left ventricular muscle was obtained and the tissue was rinsed in ice-cold salin. Left ventricular muscle was homogenized in10 volumes of homogenzing buffer(Tris-HCl, pH 7.8). Homogenate was then centrifuged at 100,000 X g for 40 minutes, after which the supernatent was removed. The pellet was resuspended in homogenizing buffer, centrifuged as before and the supernatent obtained as discarded. The pellet was resuspended in 10 volumes of homogenizing buffer containing Triton X-100 and Brij 30, and incubated overnight at 4°C. The detergent-extracted proteins were then separated by centrifugation at 100,000 X g for 40 monutes. The detergent-extracted protein was dialyzed against 70mM sodium acetate /5mM 2-mercaptoethanol(pH 6.5) for 5 hours. The dialyzed extract was applied to a DEAE-cellulose column and eluted using a 70-1000 mM sodium acetate gradient. Appropriate fractions were pooled and concentrated using Amicon ultrafiltration cell. Following concentration, the protein was diluted with ethylene glycol and stored at -20°C.
Phosphodiesterase activity was measured in a reaction medium (40mM Tris-HCl, pH 8.0). The concentration of substrate was 1.0 uM. The IC 50 values( concentration which produced 50% inhibition of substrate hydrolysis) for the various compounds examined were determined from concentration-response curves. Detailed method of this experiment was reported in J.Mol.Cell Cardiol. 19, 1025-1036 (1987).

[5] = Acute toxicity test in rats, oral; conditions: rat, in vivo
Description: Acute toxicity test of 6-(4-methylimidazol-1-yl)-(4H)-3,1-benzoxazin-2-one was conducted in Spraque-Dawley rats. The test compound was suspended in 5% arabic gum and was administered orally to six rats at a dose of 300mg/kg body weight.
Accordingly, LD 50 of the compound is 300 mg/kg or more.

[6] = Acute toxicity test in ICR mouse, intravenous; conditions: in vivo
Description: Acute toxicity test of 6-(4-methylimidazol-1-yl)-(4H)-3,1-benzothiazin-2-one was conducted in ICR mouse. The test compound was dissolved in a mixed solvent of saline and DMF (2:1) and was administered intraveneously to five mice at a dose of 30mg/kg body weight. […] Accordingly, LD₅₀ of the cmpound is 30mg/kg or more.

[7] = at the ED 30 dose (30% by definition)
[8] = Canis lupus familiaris, read-out: change of sinus rate(%)
[9] = Canis lupus familiaris, dose 1.0 ug, read-out: change of sinus rate(%)

Compound | change of contractivity(%) [1, 7] [%] | ED 30 [1] | activation at 0.001 mg [2, 9] [%] | activation at 0.003 mg [2, 8] [%] | activation at 0.01 mg [2, 8] [%] | activation at 0.03 mg [2, 8] [%] | other results
Cc1cn(-c2cc(C)c3c(c2)COC(=O)N3)cn1 [8-methyl-6-(4-methylimidazol-1-yl)-(4H)-3,1-benzoxazin-2-one] | 30.0 | ED 30 = 1.2 ug | 6.6 | 5.8 | – | – | activation at 0.0001 mg [2, 8]: 0.8%; activation at 0.0003 mg ([2]; Canis lupus familiaris, dose 0.3 ug, read-out: change of sinus rate(%)): 1.7%
Cc1cn(-c2ccc3c(c2)CSC(=S)N3)cn1 [6-(4-methylimidazol-1-yl)-(4H)-3,1-benzothiazine-2-thione] | – | – | – | – | – | – | LD50 [3]: ≥ 200 mg/kg
O=C1Nc2ccc(-n3cnc4ccccc43)cc2CO1 [6-(benzimidazol-1-yl)-(4H)-benzoxazin-2-one] | – | ED 30 > 1000 ug | 0 | 0 | 0.3 | 0.75 | Inhibitory effect on PDE activity ([4]; test compound 0.1 uM, listed as 6-(benzimidazol-1-yl)-(4H)-3,1-benzoxazin-2-one): 95.5; Inhibitory effect on PDE activity ([4]; test compound 1 uM, listed as 6-(benzimidazol-1-yl)-(4H)-3,1-benzoxazin-2-one): 90.4; Inhibitory effect on PDE activity ([4]; test compound 10 uM, listed as 6-(benzimidazol-1-yl)-(4H)-3,1-benzoxazin-2-one): 72.3; Inhibitory effect on PDE activity ([4]; test compound 100 uM, listed as 6-(benzimidazol-1-yl)-(4H)-3,1-benzoxazin-2-one): 49.5
Cc1cn(-c2ccc3c(c2)COC(=O)N3)c(C)n1 [6-(2,4-dimethylimidzol-1-yl)-(4H)-3,1-benzoxazin-2-one] | – | ED 30 : 81.89 ug | 0 | 0 | 0 | 1.67 | –
Cc1cn(-c2cc(C)c3c(c2)CSC(=O)N3)cn1 [8-methyl-6-(4-methylimidazol-1-yl)-(4H)-3,1-benzothiazin-2-one] | 30.0 | ED 30 = 5.0 ug | – | 3.3 | – | – | ED 30 ([1]; listed as 8-methyl-6-(4-met-hylimidazol-1-)-( 4H)-3,1-benzothia-zin-2-one): ED 30 = 0.6 ug; activation at 0.0001 mg [2, 8]: 1.7%; change of sinus rate(%) ([2]; dose 0.3 ug): 4.8%; change of sinus rate(%) ([2]; dose 1.0 ug): 8.3%
O=C1Nc2ccc(-n3ccnc3)cc2CO1 [6-(imidazol-1-yl)-(4H)-3,1-benzoxazin-2-one] | – | ED 30 > 1000 ug | 0 | 0.84 | 2.52 | 6.67 | Inhibitory effect on PDE activity ([4]; test compound 0.1 uM): 98.4; Inhibitory effect on PDE activity ([4]; test compound 1 uM): 74.5; Inhibitory effect on PDE activity ([4]; test compound 10 uM): 52.2; Inhibitory effect on PDE activity ([4]; test compound 100 uM): 28.8
Cc1nccn1-c1ccc2c(c1)COC(=O)N2 [6-(2-methylimidazol-1-yl)-(4H)-3,1-benzoxazine-2-one] | – | ED 30 > 1000 ug | 0 | 0 | 0.86 | 3.42 | –
Cc1cn(-c2ccc3c(c2)COC(=O)N3)cn1 [6-(4-methylimidazol-1-yl)(4H)-3,1-benzoxazin-2-one] | – | ED 30 : 10.4 ug | 0 | 2.52 | 5.04 | – | IC50 ([4]; 50% inhibition of substrate hydrolysis): 12.8 µM; Inhibitory effect on PDE activity ([4]; test compound 0.1 uM): 95.1; Inhibitory effect on PDE activity ([4]; test compound 1 uM): 77.5; Inhibitory effect on PDE activity ([4]; test compound 10 uM): 51.7; Inhibitory effect on PDE activity ([4]; test compound 100 uM): 35.8; LD50 [5]: ≥ 300 mg/kg
O=C1Nc2ccc(-n3ccnc3)cc2CS1 [6-(imidazol-1-yl)-(4H)-3,1-benzothiazin-2-one] | 30 | – | – | – | – | – | –
Cc1cn(-c2ccc3c(c2)CSC(=O)N3)cn1 [6-(4-methylimidazol-1-yl)-(4H)-3,1-benzothiazin-2-one] | 30 | – | – | 2.3 | – | 5.6 | change of contractivity(%) ([1]; dose 1.0 ug injected into perfusing blood, developed tension vs before administration): 0.0%; change of contractivity(%) ([1]; dose 3.0 ug injected into perfusing blood, developed tension vs before administration): 7.2% and 1.5%; change of contractivity(%) ([1]; dose 10.0 ug injected into perfusing blood, developed tension vs before administration): 20.5% and 11.5%; change of contractivity(%) ([1]; dose 30.0 ug injected into perfusing blood, developed tension vs before administration): 30.7% and 23.3%; LD50 [6]: ≥ 30 mg/kg
CCc1nc(C)cn1-c1ccc2c(c1)COC(=O)N2 [6-(2-ethyl-4-methylimidazol-1-yl)-(4H)-3,1-benzoxazin-2-one] | – | ED 30 : 269 ug | 0 | 0 | 0.83 | 1.65 | –
